US9809540B2, “Hydrobromide salt of N-(4-chloro-2-hydroxy-3-((3S)-3-piperidinylsulfonyl)phenyl-N'-(3-fluoro-2-methylphenyl)urea” (GlaxoSmithKline Intellectual Property (No.2) Limited, priority 2013, dated 2017)
In brackets after ≈: the same amount, converted by molar mass. Counter-ions that a name gives are not always drawn.

Key:
[1] = Dissolution profiles (capsule) in pH1.6 simulated gastric fluid and pH 4 citrate buffer; type: physicochemical
Procedure: Dissolution profiles of the HBr salt (50 mg as free form) in a capsule compared with the free base in pH1.6 simulated gastric fluid and in pH 4 citrate buffer. The HBr salt is better.

[2] = Solubility in simulated gastric/intestinal fluids and pH media; type: physicochemical; details: for solubility at 0.5 h / solubility at 4 h / solubility at 24 h / solubility at 0.5 hr / solubility at 4 hr / solubility at 24 hr: thermodynamic from solid

With `Cc1c(F)cccc1NC(=O)Nc1ccc(Cl)c(S(=O)(=O)[C@H]2CCCNC2)c1O` [HBr Salt, hydrobromide salt of the enantiomer N-{4-chloro-2-hydroxy-3-[(3S)-3-piperidinylsulfonyl]phenyl}-N′-(3-fluoro-2-methylphenyl)urea] the Dissolution profile ([1]; 50 mg as free form in a capsule, pH1.6 simulated gastric fluid and pH 4 citrate buffer, FIGS. 1 and 2) was “better”, the “Dissolution rate at low gastric pH” value ([1]; FIG. 1, low gastric pH) was “enhanced dissolution rate without gelling” and the “Rate of dissolution at an elevated gastric pH” value ([1]; FIG. 2, elevated gastric pH) was “greatest rate of dissolution”. The “Dissolution profile at higher pH as compared to the free base” value ([1]; higher pH) was “improved”, the Solubility ([2]; Phares FaSSIF pH 6.5, 4 hr) was 272 µg/mL and the solubility at 0.5 h ([2]; SGF (simulated gastric fluid), pH 1.6, simulated gastric fluid, Batch 1, SGF pH 1.6, 0.5 hr) was 770 µg/mL. For the same molecule, the solubility at 4 h ([2]; SGF (simulated gastric fluid), pH 1.6, simulated gastric fluid, Batch 1, SGF pH 1.6, 4 hr) was 787 µg/mL, the solubility at 24 h ([2]; SGF (simulated gastric fluid), pH 1.6, simulated gastric fluid, Batch 1, SGF pH 1.6, 24 hr) was 795 µg/mL and the solubility at 0.5 h ([2]; SGF (simulated gastric fluid), pH 1.6, simulated gastric fluid, Batch 2, SGF pH 1.6, 0.5 hr) was 414 µg/mL. For the same molecule, the solubility at 4 h ([2]; SGF (simulated gastric fluid), pH 1.6, simulated gastric fluid, Batch 2, SGF pH 1.6, 4 hr) was 647 µg/mL, the solubility at 24 h ([2]; SGF (simulated gastric fluid), pH 1.6, simulated gastric fluid, Batch 2, SGF pH 1.6, 24 hr) was 800 µg/mL and the solubility at 0.5 h ([2]; SGF (simulated gastric fluid), pH 1.6, simulated gastric fluid, Batch 3, SGF pH 1.6, 0.5 hr) was 757 µg/mL. The “Solubility compared with the free base” value ([2]; at higher pH's and in simulated intestinal fluids) was “higher than the free base”, the solubility at 0.5 hr ([2]; fasted-state simulated intestinal fluid (Phares FaSSIF), pH 6.5, fassif, Batch 1, Phares FaSSif pH 6.5, 0.5 hr) was 420 µg/mL and the solubility at 4 hr ([2]; fasted-state simulated intestinal fluid (Phares FaSSIF), pH 6.5, fassif, Batch 1, Phares FaSSif pH 6.5, 4 hr) was 384 µg/mL. For the same molecule, the solubility at 24 hr ([2]; fasted-state simulated intestinal fluid (Phares FaSSIF), pH 6.5, fassif, Batch 1, Phares FaSSif pH 6.5, 24 hr) was 64 µg/mL, the solubility at 0.5 hr ([2]; fasted-state simulated intestinal fluid (Phares FaSSIF), pH 6.5, fassif, Batch 2, Phares FaSSif pH 6.5, 0.5 hr) was 270 µg/mL and the solubility at 4 hr ([2]; fasted-state simulated intestinal fluid (Phares FaSSIF), pH 6.5, fassif, Batch 2, Phares FaSSif pH 6.5, 4 hr) was 379 µg/mL. It also gave a solubility at 24 hr ([2]; fasted-state simulated intestinal fluid (Phares FaSSIF), pH 6.5, fassif, Batch 2, Phares FaSSif pH 6.5, 24 hr) of 79 µg/mL, a solubility at 0.5 hr ([2]; fasted-state simulated intestinal fluid (Phares FaSSIF), pH 6.5, fassif, Batch 3, Phares FaSSif pH 6.5, 0.5 hr) of 459 µg/mL and a solubility at 4 hr ([2]; fasted-state simulated intestinal fluid (Phares FaSSIF), pH 6.5, fassif, Batch 3, Phares FaSSif pH 6.5, 4 hr) of 227 µg/mL. For the same molecule, the solubility at 24 hr ([2]; fasted-state simulated intestinal fluid (Phares FaSSIF), pH 6.5, fassif, Batch 3, Phares FaSSif pH 6.5, 24 hr) was 56 µg/mL, the solubility at 0.5 hr ([2]; fed-state simulated intestinal fluid (Phares FeSSIF), fessif, Batch 1, Phares FeSSIF pH .5, 0.5 hr) was 838 µg/mL and the solubility at 4 hr ([2]; fed-state simulated intestinal fluid (Phares FeSSIF), fessif, Batch 1, Phares FeSSIF pH .5, 4 hr) was 833 µg/mL. The solubility at 24 hr ([2]; fed-state simulated intestinal fluid (Phares FeSSIF), fessif, Batch 1, Phares FeSSIF pH .5, 24 hr) was 788 µg/mL, the solubility at 0.5 hr ([2]; fed-state simulated intestinal fluid (Phares FeSSIF), fessif, Batch 2, Phares FeSSIF pH .5, 0.5 hr) was 478 µg/mL and the solubility at 4 hr ([2]; fed-state simulated intestinal fluid (Phares FeSSIF), fessif, Batch 2, Phares FeSSIF pH .5, 4 hr) was 846 µg/mL. It also gave a solubility at 24 hr ([2]; fed-state simulated intestinal fluid (Phares FeSSIF), fessif, Batch 2, Phares FeSSIF pH .5, 24 hr) of 834 µg/mL, a solubility at 0.5 hr ([2]; fed-state simulated intestinal fluid (Phares FeSSIF), fessif, Batch 3, Phares FeSSIF pH .5, 0.5 hr) of 724 µg/mL and a solubility at 4 hr ([2]; fed-state simulated intestinal fluid (Phares FeSSIF), pH 6.5, fessif, Batch 3, Phares FeSSIF pH .5, 4 hr) of 841 µg/mL. The solubility at 24 hr ([2]; fed-state simulated intestinal fluid (Phares FeSSIF), pH 6.5, fessif, Batch 3, Phares FeSSIF pH .5, 24 hr) was 340 µg/mL, the “Solubility at higher pH as compared to the free base” value ([2]; higher pH) was “improved” and the solubility at 0.5 h ([2]; pH 2, aqueous buffer, Batch 3, pH 2.0, 0.5 hr) was 605 µg/mL. The solubility at 4 h ([2]; pH 2, aqueous buffer, Batch 3, pH 2.0, 4 hr) was 635 µg/mL, the solubility at 24 h ([2]; pH 2, aqueous buffer, Batch 3, pH 2.0, 24 hr) was 609 µg/mL and the solubility at 24 h ([2]; pH 2, aqueous buffer, pH 2.0, 24 hr) was 609 µg/mL. It also gave a solubility at 0.5 h ([2]; pH 4, aqueous buffer, Batch 3, pH 4.0, 0.5 hr) of 685 µg/mL, a solubility at 4 h ([2]; pH 4, aqueous buffer, Batch 3, pH 4.0, 4 hr) of 670 µg/mL and a solubility at 24 h ([2]; pH 4, aqueous buffer, Batch 3, pH 4.0, 24 hr) of 609 µg/mL. For the same molecule, the solubility at 4 h ([2]; pH 4, aqueous buffer, pH 4.0, 4 hr) was 670 µg/mL, the solubility at 0.5 h ([2]; pH 6, aqueous buffer, Batch 3, pH 6.0, 0.5 hr) was 194 µg/mL and the solubility at 4 h ([2]; pH 6, aqueous buffer, Batch 3, pH 6.0, 4 hr) was 13 µg/mL. It also gave a solubility at 24 h ([2]; pH 6, aqueous buffer, Batch 3, pH 6.0, 24 hr) of 5 µg/mL, a solubility at 0.5 h ([2]; pH 8, aqueous buffer, Batch 3, pH 8.0, 0.5 hr) of 52 µg/mL and a solubility at 4 h ([2]; pH 8, aqueous buffer, Batch 3, pH 8.0, 4 hr) of 13 µg/mL. It also gave a solubility at 24 h ([2]; pH 8, aqueous buffer, Batch 3, pH 8.0, 24 hr) of 8 µg/mL, a solubility at 0.5 h ([2]; pH 8, aqueous buffer, pH 8.0, 0.5 hr) of 52 µg/mL and a solubility at 4 h ([2]; pH 8, aqueous buffer, pH 8.0, 4 hr) of 13 µg/mL. For the same molecule, the solubility at 24 h ([2]; pH 8, aqueous buffer, pH 8.0, 24 hr) was 8 µg/mL, the solubility at 4 hr ([2]; simulated gastric fluid (SGF), pH 1.6, simulated gastric fluid, Batch 3, SGF pH 1.6, 4 hr) was 795 µg/mL and the solubility at 24 hr ([2]; simulated gastric fluid (SGF), pH 1.6, simulated gastric fluid, Batch 3, SGF pH 1.6, 24 hr) was 779 µg/mL. For the same molecule, the “Solubility in simulated intestinal fluids over time” value ([2]; simulated intestinal fluids, compared with free base) was “does reduce with time but is still much higher than the equivalent free base solubility”.
With `Cc1c(F)cccc1NC(=O)Nc1ccc(Cl)c(S(=O)(=O)[C@H]2CCCNC2)c1O` [Micronised free base, N-{4-chloro-2-hydroxy-3-[(3S)-3-piperidinylsulfonyl]phenyl}-N′-(3-fluoro-2-methylphenyl) urea, reference compound] the Solubility ([2]; Phares FaSSIF pH 6.5, 0.5 hr) was 9 µg/mL (≈ 20.4 µM), the Solubility ([2]; Phares FaSSIF pH 6.5, 4 hr) was 18 µg/mL (≈ 40.7 µM) and the Solubility ([2]; Phares FaSSIF pH 6.5, 24 hr) was 10 µg/mL (≈ 22.6 µM). It also gave a Solubility ([2]; Phares FeSSIF pH 6.5, 0.5 hr) of 19 µg/mL (≈ 43 µM), a Solubility ([2]; Phares FeSSIF pH 6.5, 4 hr) of 24 µg/mL (≈ 54.3 µM) and a Solubility ([2]; Phares FeSSIF pH 6.5, 24 hr) of 25 µg/mL (≈ 56.6 µM). The solubility at 0.5 h ([2]; SGF (simulated gastric fluid), pH 1.6, simulated gastric fluid, SGF pH1.6, 0.5 hr) was 715 µg/mL (≈ 1620 µM), the solubility at 4 h ([2]; SGF (simulated gastric fluid), pH 1.6, simulated gastric fluid, SGF pH1.6, 4 hr) was 808 µg/mL (≈ 1830 µM) and the solubility at 24 h ([2]; SGF (simulated gastric fluid), pH 1.6, simulated gastric fluid, SGF pH1.6, 24 hr) was 842 µg/mL (≈ 1910 µM). The Solubility ([2]; pH 2.0, 24 hr) was 697 µg/mL (≈ 1580 µM), the solubility at 0.5 h ([2]; pH 2, aqueous buffer, pH 2.0, 0.5 hr) was 601 µg/mL (≈ 1360 µM) and the solubility at 4 h ([2]; pH 2, aqueous buffer, pH 2.0, 4 hr) was 662 µg/mL (≈ 1500 µM). It also gave a Solubility ([2]; pH 4.0, 0.5 hr) of 21 µg/mL (≈ 47.5 µM), a Solubility ([2]; pH 4.0, 4 hr) of 23 µg/mL (≈ 52 µM) and a Solubility ([2]; pH 4.0, 24 hr) of 24 µg/mL (≈ 54.3 µM). For the same molecule, the solubility at 24 h ([2]; pH 6, aqueous buffer, pH 6.0, 24 hr) was 4 µg/mL (≈ 9.05 µM), the Solubility ([2]; pH 8.0, 0.5 hr) was 5 µg/mL (≈ 11.3 µM) and the Solubility ([2]; pH 8.0, 4 hr) was 5 µg/mL (≈ 11.3 µM). The Solubility ([2]; pH 8.0, 24 hr) was 5 µg/mL (≈ 11.3 µM).
